Test results reported in patent US12545640B2, “Substituted 6,7-dihydro-5H-benzo[7]annulene compounds, processes for their preparation and therapeutic uses thereof” (SANOFI, priority 2019, dated 2026).

molecular target: T1, ERα (Homo sapiens, UniProt P03372); test: Estrogen receptor degradation activity: breast cancer cell ERα in cell western assay (MCF7 cells); type: cell-based; details: 4 hours, final concentrations ranging from 3-0.000018 μM, relative to fulvestrant 0.1 μM positive control
T1 construct: host or cells: MCF7 cells
T1 sequence (P03372 1-595): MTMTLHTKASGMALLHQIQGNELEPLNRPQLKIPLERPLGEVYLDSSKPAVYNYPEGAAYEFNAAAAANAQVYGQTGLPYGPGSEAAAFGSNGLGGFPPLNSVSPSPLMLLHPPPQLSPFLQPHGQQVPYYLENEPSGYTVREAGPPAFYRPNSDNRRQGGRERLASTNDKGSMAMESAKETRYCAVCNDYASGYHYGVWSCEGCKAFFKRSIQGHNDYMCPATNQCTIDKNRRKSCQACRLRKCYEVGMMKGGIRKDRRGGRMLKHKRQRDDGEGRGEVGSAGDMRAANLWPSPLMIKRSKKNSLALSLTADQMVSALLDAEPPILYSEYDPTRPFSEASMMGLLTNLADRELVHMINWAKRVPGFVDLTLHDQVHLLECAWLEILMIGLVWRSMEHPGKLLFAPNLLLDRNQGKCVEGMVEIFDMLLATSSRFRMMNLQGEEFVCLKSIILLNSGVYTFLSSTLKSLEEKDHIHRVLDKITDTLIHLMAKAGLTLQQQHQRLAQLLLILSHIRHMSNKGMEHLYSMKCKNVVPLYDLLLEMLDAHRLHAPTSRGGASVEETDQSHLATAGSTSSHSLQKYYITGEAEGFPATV
Protocol: Test: Estrogen Receptor Degradation Activity
Said test involves measuring the in vitro degradation activity of the compounds of the invention.
The measurements of the degradation activities were made using a breast cancer cell ERα in cell western assay as described hereunder.
MCF7 cells (ATCC) were seeded in 384 wells microplate (collagen coated) at a concentration of 10000 cells/30 μL, per well in red phenol free MEM alpha medium (invitrogen) containing 5% charcoal dextran striped FBS. The following day, 9 points serial 1:5 dilution of each compound was added to the cells in 2.5 μL at final concentrations ranging either from 3-0.000018 μM (column «% Degradation at 3 μM in table 2) or from 0.3-0.0000018 μM (column «% Degradation at 0.3 μM in table 2), or 0.1 μM for fulvestrant (using as positive control). At 4 hours post compound addition the cells were fixed by adding 25 μL of formalin (final concentration 5% formalin containing 0.1% triton) for 10 minutes at room temperature and then washed twice with PBS. Then, 50 μL of LI-COR blocking buffer containing 0.1% Triton was added to plate for 30 minutes at room temperature. LI-COR blocking buffer was removed and cells were incubated overnight at cold room with 50 μL anti-ER rabbit monoclonal antibody (Thermo scientific MA1-39540) diluted at 1:1000 in LI-COR blocking buffer containing 0.1% tween-20. Wells which were treated with blocking buffer but no antibody were used as background control. Wells were washed twice with PBS (0.1% tween-20) and incubated at 37° C. for 60 minutes in LI-COR (0.1% tween-20) containing goat anti-rabbit antibody Alexa 488 (1:1000) and Syto-64 a DNA dye ([…]). Cells were then washed 3 times in PBS and scanned in ACUMEN explorer (TTP-Labtech). Integrated intensities in the green fluorescence and red fluorescence were measured to determine the levels of ERα and DNA respectively.

Compared with FCCCN1CC[C@H](Oc2ccc(C3=C(c4ccc(OC(F)(F)F)cc4)CCCc4cc(OC(F)F)ccc43)cc2)C1 [Example 24, (S)-3-(4-(3-(difluoromethoxy)-8-(4-(trifluoromethoxy)phenyl)-6,7-dihydro-5H-benzo[7]annulen-9-yl)phenoxy)-1-(3-fluoropropyl)pyrrolidine], O=C(Nc1ccc2c(c1)CCCC(c1ccc(Cl)cc1Cl)=C2c1ccc(O[C@H]2CCN(CCCF)C2)cc1)C(F)(F)F [Example 47, (S)—N-(8-(2,4-dichlorophenyl)-9-(4-((1-(3-fluoropropyl)pyrrolidin-3-yl)oxy)phenyl)-6,7-dihydro-5H-benzo[7]annulen-3-yl)-2,2,2-trifluoroacetamide] is higher in “% Degradation At 3 μM” value: 74% for the first, 78% for the second.

Compared with COC(=O)Nc1ccc2c(c1)CCCC(c1ccc(Cl)cc1Cl)=C2c1ccc(O[C@H]2CCN(CCCF)C2)cc1 [Example 25, Methyl (S)-(8-(2,4-dichlorophenyl)-9-(4-((1-(3-fluoropropyl)pyrrolidin-3-yl)oxy)phenyl)-6,7-dihydro-5H-benzo[7]annulen-3-yl)carbamate], CC(C)(C)OC(=O)Nc1ccc2c(c1)CCCC(c1ccc(Cl)cc1Cl)=C2c1ccc(O[C@H]2CCN(CCCF)C2)cc1 [Example 32, Tert-butyl (S)-(8-(2,4-dichlorophenyl)-9-(4-((1-(3-fluoropropyl)pyrrolidin-3-yl)oxy)phenyl)-6,7-dihydro-5H-benzo[7]annulen-3-yl)carbamate] is higher in “% Degradation At 3 μM” value: 65% for the first, 73% for the second.

Going from N=C(NO)c1ccc2c(c1)CCCC(c1ccc(Cl)cc1Cl)=C2c1ccc(O[C@H]2CCN(CCCF)C2)cc1 [Example 26, (S)-8-(2,4-dichlorophenyl)-9-(4-((1-(3-fluoropropyl)pyrrolidin-3-yl)oxy)phenyl)-N-hydroxy-6,7-dihydro-5H-benzo[7]annulene-3-carboximidamide] to CC(=N)Nc1ccc2c(c1)CCCC(c1ccc(Cl)cc1Cl)=C2c1ccc(O[C@H]2CCN(CCCF)C2)cc1 [Example 46, (S)—N-(8-(2,4-dichlorophenyl)-9-(4-((1-(3-fluoropropyl)pyrrolidin-3-yl)oxy)phenyl)-6,7-dihydro-5H-benzo[7]annulen-3-yl)acetimidamide], the “% Degradation At 3 μM” value rises from 90% to 95%.

Compared with O=c1[nH]c(-c2ccc3c(c2)CCCC(c2ccc(Cl)cc2Cl)=C3c2ccc(O[C@H]3CCN(CCCF)C3)cc2)no1 [Example 27, (S)-3-(8-(2,4-dichlorophenyl)-9-(4-((1-(3-fluoropropyl)pyrrolidin-3-yl)oxy)phenyl)-6,7-dihydro-5H-benzo[7]annulen-3-yl)-1,2,4-oxadiazol-5(4H)-one], FCCCN1CC[C@H](Oc2ccc(C3=C(c4ccc(Cl)cc4Cl)CCCc4cc(-c5noc(=S)[nH]5)ccc43)cc2)C1 [Example 34, (S)-3-(8-(2,4-dichlorophenyl)-9-(4-((1-(3-fluoropropyl)pyrrolidin-3-yl)oxy)phenyl)-6,7-dihydro-5H-benzo[7]annulen-3-yl)-1,2,4-oxadiazole-5(4H)-thione] is lower in “% Degradation At 3 μM” value: 71% for the first, 66% for the second.

First: Cl.O=S1NC(c2ccc3c(c2)CCCC(c2ccc(Cl)cc2Cl)=C3c2ccc(O[C@H]3CCN(CCCF)C3)cc2)=NO1 (stereo partly drawn) [Example 29, 4-(8-(2,4-dichlorophenyl)-9-(4-(((S)-1-(3-fluoropropyl)pyrrolidin-3-yl)oxy)phenyl)-6,7-dihydro-5H-benzo[7]annulen-3-yl)-3H-1,2,3,5-oxathiadiazole 2-oxide hydrochloride]
Second: O=c1[nH]nc(-c2ccc3c(c2)CCCC(c2ccc(Cl)cc2Cl)=C3c2ccc(O[C@H]3CCN(CCCF)C3)cc2)o1 [Example 31, (S)-5-(8-(2,4-dichlorophenyl)-9-(4-((1-(3-fluoropropyl)pyrrolidin-3-yl)oxy)phenyl)-6,7-dihydro-5H-benzo[7]annulen-3-yl)-1,3,4-oxadiazol-2(3H)-one]
The “% Degradation At 3 μM” value of the first is lower: 91% for the first, 95% for the second.

First: CS(=O)(=O)Nc1ccc2c(c1)CCCC(c1ccc(Cl)cc1Cl)=C2c1ccc(O[C@H]2CCN(CCCF)C2)cc1 [Example 30, (S)—N-(8-(2,4-dichlorophenyl)-9-(4-((1-(3-fluoropropyl)pyrrolidin-3-yl)oxy)phenyl)-6,7-dihydro-5H-benzo[7]annulen-3-yl)methane sulfonamide]
Second: O=S(=O)(Nc1ccc2c(c1)CCCC(c1ccc(Cl)cc1Cl)=C2c1ccc(O[C@H]2CCN(CCCF)C2)cc1)C(F)(F)F [Example 35, (S)—N-(8-(2,4-dichlorophenyl)-9-(4-((1-(3-fluoropropyl)pyrrolidin-3-yl)oxy)phenyl)-6,7-dihydro-5H-benzo[7]annulen-3-yl)-1,1,1-trifluoromethanesulfonamide]
The “% Degradation At 3 μM” value of the first is higher: 70% for the first, 52% for the second.

Going from O=c1oc(-c2ccc3c(c2)CCCC(c2ccc(Cl)cc2Cl)=C3c2ccc(O[C@H]3CCN(CCCF)C3)cc2)ns1 [Example 33, (S)-5-(8-(2,4-dichlorophenyl)-9-(4-((1-(3-fluoropropyl)pyrrolidin-3-yl)oxy)phenyl)-6,7-dihydro-5H-benzo[7]annulen-3-yl)-1,3,4-oxathiazol-2-one] to O=c1[nH]c(-c2ccc3c(c2)CCCC(c2ccc(Cl)cc2Cl)=C3c2ccc(O[C@H]3CCN(CCCF)C3)cc2)ns1 [Example 37, (S)-3-(8-(2,4-dichlorophenyl)-9-(4-((1-(3-fluoropropyl)pyrrolidin-3-yl)oxy)phenyl)-6,7-dihydro-5H-benzo[7]annulen-3-yl)-1,2,4-thiadiazol-5(4H)-one], the “% Degradation At 3 μM” value rises from 95% to 98%.

Compared with O=c1c(O)c(Nc2ccc3c(c2)CCCC(c2ccc(Cl)cc2Cl)=C3c2ccc(O[C@H]3CCN(CCCF)C3)cc2)c1=O [Example 36, (S)-3-((8-(2,4-dichlorophenyl)-9-(4-((1-(3-fluoropropyl)pyrrolidin-3-yl)oxy)phenyl)-6,7-dihydro-5H-benzo[7]annulen-3-yl)amino)-4-hydroxycyclobut-3-ene-1,2-dione], O=C1NC(=O)C(c2ccc3c(c2)CCCC(c2ccc(Cl)cc2Cl)=C3c2ccc(O[C@H]3CCN(CCCF)C3)cc2)N1 (stereo partly drawn) [Example 43, 5-(8-(2,4-dichlorophenyl)-9-(4-(((S)-1-(3-fluoropropyl)pyrrolidin-3-yl)oxy)phenyl)-6,7-dihydro-5H-benzo[7]annulen-3-yl)imidazolidine-2,4-dione] is higher in “% Degradation At 3 μM” value: 93% for the first, 95% for the second.

Compared with O=C1OCCN1c1ccc2c(c1)CCCC(c1ccc(Cl)cc1Cl)=C2c1ccc(O[C@H]2CCN(CCCF)C2)cc1 [Example 40, (S)-3-(8-(2,4-dichlorophenyl)-9-(4-((1-(3-fluoropropyl)pyrrolidin-3-yl)oxy)phenyl)-6,7-dihydro-5H-benzo[7]annulen-3-yl)oxazolidin-2-one], O=C1OCCN1c1ccc(C2=C(c3ccc(O[C@H]4CCN(CCCF)C4)cc3)c3ccc(N4CCOC4=O)cc3CCC2)c(Cl)c1 [Example 41, (S)-3-(8-(2-chloro-4-(2-oxooxazolidin-3-yl)phenyl)-9-(4-((1-(3-fluoropropyl)pyrrolidin-3-yl)oxy)phenyl)-6,7-dihydro-5H-benzo[7]annulen-3-yl)oxazolidin-2-one] is higher in “% Degradation At 3 μM” value: 66% for the first, 74% for the second.

Compared with CON(C)C(=O)c1ccc2c(c1)CCCC(c1ccc(Cl)cc1Cl)=C2c1ccc(O[C@H]2CCN(CCCF)C2)cc1 [Example 44, (S)-8-(2,4-dichlorophenyl)-9-(4-((1-(3-fluoropropyl)pyrrolidin-3-yl)oxy)phenyl)-N-methoxy-N-methyl-6,7-dihydro-5H-benzo[7]annulene-3-carboxamide], FCCCN1CC[C@H](Oc2ccc(C3=C(c4ccc(Cl)cc4Cl)CCCc4cc(-c5n[nH]c(=S)o5)ccc43)cc2)C1 [Example 45, (S)-5-(8-(2,4-dichlorophenyl)-9-(4-((1-(3-fluoropropyl)pyrrolidin-3-yl)oxy)phenyl)-6,7-dihydro-5H-benzo[7]annulen-3-yl)-1,3,4-oxadiazole-2(3H)-thione] is higher in “% Degradation At 3 μM” value: 50% for the first, 96% for the second.
